US20230390314A1, “METABOLIC ACTIVATORS FOR ENHANCING SPERM CAPACITATION IN MAMMALS” (UNIVERSIDADE DO PORTO, priority 2020, published 2023)

Columns and labels:
human spermatozoa [1] = test: Sperm viability by eosin-nigrosin staining; assay type: cell-based; details: 6 hours, capacitating conditions
Description: For sperm preparation, semen samples were collected by masturbation into sterile cups after 2-4 days of sexual abstinence. Samples were left to liquefy for up 2 hours at 37° C. to complete liquefaction prior to processing as described below. Only ejaculates whose semen parameters (total fluid volume, sperm concentration, motility and morphology) meet the (2010) normality criteria established by the WHO (2010) were processed. Ejaculates were submitted to discontinuous gradient centrifugation (Sperm Wash Gradient Set (45% and 90%)) for 20 min at 300 g at room temperature. […] The pellet was then resuspended in 1 mL of non-capacitating (NC) media and sperm concentration was determined using a Neubauer counting chamber under an optical microscope (×100 magnification). Due to the low number of spermatozoa obtained in each ejaculate, different ejaculates were pooled for different assessments. Finally, depending on experimental design spermatozoa were diluted in 1 ml of capacitating (CAP media containing 26 mg/mL of BSA and 25 mM of bicarbonate) or NC at a final concentration of 20×10^6/ml for 6 hours at 37° C. in presence or absence of the activator. […]
For determination of sperm viability, the instructions by the WHO (2010) were followed, sperm viability was assessed by eosin-nigrosin staining technique. […] A total of 200 spermatozoa were counted in random fields under a bright-field microscope. […]

breast cancer cells = details: Yi et al., 2013; cited from earlier work
renal fibroblast = details: Ponnusamy et al., 2015; cited from earlier work
human spermatozoa [2] = test: Protein tyrosine phosphorylation (sperm capacitation hallmark) by anti-phosphotyrosine western blot; assay type: cell-based
Description: For sperm incubations Biggers-Whitten-Whittingham (BWW) media described by Biggers J D et al. (1971) with slightly modifications was used. BBW-washed (BWW-W): 94.5 mM NaCl, 4.8 mM KCl, 1.7 mM CaCl2×2H2O, 1.17 mM KH2PO4, 1.22 mM MgSO4×7H2O, 20 mM HEPES. Non capacitation media (NC) contains all the component of BWW-washed plus 5.56 mM glucose and gentamycin 10 mg/mL. Capacitating media (CAP): contains all the component of NC plus 25 mM of HCO3 and 26 mg of Bovine Serum Albumin (BSA). All the media were balanced to a final pH 7.2-7.4
For sperm preparation, semen samples were collected by masturbation into sterile cups after 2-4 days of sexual abstinence. Samples were left to liquefy for up 2 hours at 37° C. to complete liquefaction prior to processing as described below. Only ejaculates whose semen parameters (total fluid volume, sperm concentration, motility and morphology) meet the (2010) normality criteria established by the WHO (2010) were processed. Ejaculates were submitted to discontinuous gradient centrifugation (Sperm Wash Gradient Set (45% and 90%)) for 20 min at 300 g at room temperature. […] The pellet was then resuspended in 1 mL of non-capacitating (NC) media and sperm concentration was determined using a Neubauer counting chamber under an optical microscope (×100 magnification). Due to the low number of spermatozoa obtained in each ejaculate, different ejaculates were pooled for different assessments. Finally, depending on experimental design spermatozoa were diluted in 1 ml of capacitating (CAP media containing 26 mg/mL of BSA and 25 mM of bicarbonate) or NC at a final concentration of 20×10^6/ml for 6 hours at 37° C. in presence or absence of the activator. YK-3-237 was added at the referred concentration at time 0 of incubation and keep along the time of sperm incubation.
For the Western blot analysis, spermatozoa were washed twice in phosphate-buffered saline (PBS) by centrifugation at 5000 g for 3 min at room temperature. The pellet was resuspended in 2×Laemmli sample buffer and incubated over night at 4° C. The samples were then centrifuged again (10000 g, 15 min, 4° C.) and the protein concentration was measured using a Bio-Rad DC Protein Assay. […] The phosphorylation state of the sperm proteins was analysed by overnight incubation at 4° C. with an anti-phosphotyrosine monoclonal antibody (mAb; Clone 4G10, Millipore; diluted 1:3000, v/v, in Tris-buffered saline-Tween 20 solution (TBST) containing 3% milk). The levels of sperm lipid peroxidation was evaluated by overnight incubation at 4° C. with an anti-4-hydroxynonenal (4HNE) antibody (pAb; Millipore; diluted 1:3000, v/v, in Tris-buffered saline-Tween 20 solution (TBST) containing 3% BSA. Membranes incubated with anti-phosphotyrosine were incubated for 60 min at room temperature with a horseradish peroxidase (HRP)-conjugated secondary anti-mouse antibody (diluted 1:5000, v/v, in TBST containing or 3% milk). Membranes incubated with anti-4HNE were incubated for 60 min at room temperature with a horseradish peroxidase (HRP)-conjugated secondary anti-goat antibody (diluted 1:5000, v/v, in TBST containing or 3% BSA). […]
Membranes' fluorescence was read with the BioRad FX-Pro-plus (Bio-Rad, Hemel Hempstead, UK). […] Western blotting regions of interest (ROIs) used for quantification are indicated by a vertical bar on the right of the respective western blot. […]

COc1ccc(/C=C/C(=O)c2cc(OC)c(OC)c(OC)c2)cc1B(O)O [YK-3-237, B-[2-methoxy-5-[(1E)-3-oxo-3-(3,4,5-trimethoxyphenyl)-1-propen-1-yl]phenyl]-boronic acid]
effect on sperm viability (human spermatozoa [1]; 10 μM): did not affect sperm viability | effect on sperm viability, all concentrations tested (human spermatozoa [1]; 37° C., different concentrations): none of the concentration tested had detrimental effect | effect on breast cancer cells (breast cancer cells): antiproliferative effect | effect on renal fibroblast and renal fibrogenesis (renal fibroblast): promotes renal fibroblast activation and aggravates renal fibrogenesis | tyrosine phosphorylation levels, co-incubation in presence of bicarbonate (human spermatozoa [2]; 10 μM, 6 hours, bicarbonate present): increases the tyrosine phosphorylation levels | tyrosine phosphorylation levels, complete capacitating media containing bicarbonate and BSA (human spermatozoa [2]; 10 μM, 6 hours, compared with bicarbonate alone): further improved | tyrosine phosphorylation levels in comparison with control (human spermatozoa [2]; 6 hours co-incubation, capacitating media (HCO3 25 mM, BSA 26 mg/mL), 37° C., vs control 6 hours): tripled | best concentration which enhanced tyrosine phosphorylation levels (human spermatozoa [2]; 6 hours incubation in capacitating conditions (bicarbonate and BSA)): 10 µM | increase of tyrosine phosphorylation levels (human spermatozoa [2]; human sperm, capacitating conditions, FIGS. 1A, 2A and 3A): up to 3 folds
